Two compounds from ChEMBL document CHEMBL1129255, “Identification of a retinoic acid receptor alpha subtype specific agonist” (J Med Chem, 1996) can be followed below.

In general, Kd refers to a measure of binding affinity in units of concentration. A high value points to a looser complex.

The target in assay [1] is T1, Retinoic acid receptor gamma (Homo sapiens, UniProt P13631).
T1 sequence (P13631 whole entry): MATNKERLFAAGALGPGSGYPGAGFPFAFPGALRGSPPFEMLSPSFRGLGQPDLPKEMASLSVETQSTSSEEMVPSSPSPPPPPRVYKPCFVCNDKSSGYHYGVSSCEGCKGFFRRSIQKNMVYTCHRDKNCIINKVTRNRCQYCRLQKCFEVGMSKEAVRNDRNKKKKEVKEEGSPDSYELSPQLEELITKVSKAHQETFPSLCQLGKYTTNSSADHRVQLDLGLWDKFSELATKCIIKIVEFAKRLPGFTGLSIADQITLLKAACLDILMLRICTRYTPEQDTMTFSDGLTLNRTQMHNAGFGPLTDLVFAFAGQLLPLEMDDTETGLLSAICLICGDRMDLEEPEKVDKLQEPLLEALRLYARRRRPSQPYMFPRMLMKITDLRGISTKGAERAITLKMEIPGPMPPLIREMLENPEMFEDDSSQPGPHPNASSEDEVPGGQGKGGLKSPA
The assay can be described thus: Binding affinity for baculovirus-expressed Retinoic acid receptor RAR gamma.

Assay [2] deals with T2, Retinoic acid receptor beta (Homo sapiens, UniProt P10826).
T2 sequence (P10826 whole entry): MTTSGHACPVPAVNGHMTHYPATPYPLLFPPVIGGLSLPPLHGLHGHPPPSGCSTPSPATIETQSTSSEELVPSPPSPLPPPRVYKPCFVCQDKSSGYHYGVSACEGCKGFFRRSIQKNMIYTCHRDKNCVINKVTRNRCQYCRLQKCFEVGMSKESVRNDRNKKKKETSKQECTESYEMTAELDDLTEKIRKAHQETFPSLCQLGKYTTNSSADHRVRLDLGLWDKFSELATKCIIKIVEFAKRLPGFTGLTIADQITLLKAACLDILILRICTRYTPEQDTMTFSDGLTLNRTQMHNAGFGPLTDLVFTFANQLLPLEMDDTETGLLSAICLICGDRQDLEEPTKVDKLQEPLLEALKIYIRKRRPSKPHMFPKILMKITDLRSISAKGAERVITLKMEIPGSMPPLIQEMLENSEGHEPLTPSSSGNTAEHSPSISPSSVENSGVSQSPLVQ
The assay can be described thus: Binding affinity for baculovirus-expressed Retinoic acid receptor RAR beta.

Assay [3] addresses T3, Retinoic acid receptor alpha (Homo sapiens, UniProt P10276).
T3 sequence (P10276 whole entry): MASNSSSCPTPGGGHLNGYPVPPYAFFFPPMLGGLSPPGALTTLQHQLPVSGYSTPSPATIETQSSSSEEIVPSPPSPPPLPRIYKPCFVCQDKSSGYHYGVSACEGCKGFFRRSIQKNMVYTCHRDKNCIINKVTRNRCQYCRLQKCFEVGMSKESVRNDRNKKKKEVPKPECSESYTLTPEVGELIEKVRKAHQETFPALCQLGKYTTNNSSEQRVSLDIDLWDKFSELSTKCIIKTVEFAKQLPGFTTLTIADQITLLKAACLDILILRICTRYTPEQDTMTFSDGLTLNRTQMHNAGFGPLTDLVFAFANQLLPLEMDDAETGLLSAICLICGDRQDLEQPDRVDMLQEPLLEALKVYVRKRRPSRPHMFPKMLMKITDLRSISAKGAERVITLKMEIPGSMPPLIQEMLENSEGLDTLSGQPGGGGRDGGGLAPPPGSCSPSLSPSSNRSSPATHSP
The assay can be described thus: Binding affinity for baculovirus-expressed Retinoic acid receptor RAR alpha.

`CC1(C)CCC(C)(C)c2c1cc(C(=O)Nc1ccc(C(=O)O)c(F)c1)c(O)c2Br`: the Kd is above 30 µM in assay [1], 3.04 µM in assay [2] and 0.0044 µM in assay [3].
On the same counts, the results for `CC1(C)CCC(C)(C)c2c1cc(C(=O)Nc1cc(F)c(C(=O)O)c(F)c1)c(O)c2Br` are above 30 µM, 17.4 µM and 0.0084 µM.
